Test results published in ChEMBL document CHEMBL4130492, “Tying up tranylcypromine: Novel selective histone lysine specific demethylase 1 (LSD1) inhibitors” (Eur J Med Chem, 2017).

Key:
[1] = target: T1, Amine oxidase [flavin-containing] A (Homo sapiens, UniProt P21397); assay: biochemical
T1 sequence (P21397 whole entry): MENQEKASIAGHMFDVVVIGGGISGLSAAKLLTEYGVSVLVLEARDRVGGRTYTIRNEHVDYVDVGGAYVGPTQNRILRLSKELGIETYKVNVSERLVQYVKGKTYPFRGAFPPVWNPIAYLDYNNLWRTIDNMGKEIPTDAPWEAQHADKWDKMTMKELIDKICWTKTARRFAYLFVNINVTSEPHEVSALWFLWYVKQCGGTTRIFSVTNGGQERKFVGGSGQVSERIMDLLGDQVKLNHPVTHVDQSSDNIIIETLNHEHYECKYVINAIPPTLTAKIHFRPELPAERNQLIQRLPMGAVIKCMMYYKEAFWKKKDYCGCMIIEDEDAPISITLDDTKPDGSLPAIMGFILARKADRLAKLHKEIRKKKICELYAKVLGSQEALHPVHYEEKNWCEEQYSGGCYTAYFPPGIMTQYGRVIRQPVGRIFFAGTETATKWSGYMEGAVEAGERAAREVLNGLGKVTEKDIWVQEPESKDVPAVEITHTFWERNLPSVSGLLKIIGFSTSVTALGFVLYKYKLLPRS
Description: Inhibition of human recombinant MAO-A expressed in baculovirus infected insect cells by luminescence assay

[2] = tested on: RPMI-8226; assay: Antiproliferative activity against human RPMI8226 cells after 10 days by MTS assay; type: functional, cell-based; settings: RPMI-8226, 240 h
[3] = tested on: MV4-11; assay: Antiproliferative activity against human MV4-11 cells after 10 days by MTS assay; type: functional, cell-based; settings: MV4-11, 240 h
[4] = tested on: MV4-11; assay: Antiproliferative activity against human MV4-11 cells after 3 days by MTS assay; type: functional, cell-based; settings: MV4-11, 72 h
[5] = target: T2, Lysine-specific histone demethylase 2 (Homo sapiens, UniProt Q8NB78)
T2 sequence (Q8NB78 whole entry): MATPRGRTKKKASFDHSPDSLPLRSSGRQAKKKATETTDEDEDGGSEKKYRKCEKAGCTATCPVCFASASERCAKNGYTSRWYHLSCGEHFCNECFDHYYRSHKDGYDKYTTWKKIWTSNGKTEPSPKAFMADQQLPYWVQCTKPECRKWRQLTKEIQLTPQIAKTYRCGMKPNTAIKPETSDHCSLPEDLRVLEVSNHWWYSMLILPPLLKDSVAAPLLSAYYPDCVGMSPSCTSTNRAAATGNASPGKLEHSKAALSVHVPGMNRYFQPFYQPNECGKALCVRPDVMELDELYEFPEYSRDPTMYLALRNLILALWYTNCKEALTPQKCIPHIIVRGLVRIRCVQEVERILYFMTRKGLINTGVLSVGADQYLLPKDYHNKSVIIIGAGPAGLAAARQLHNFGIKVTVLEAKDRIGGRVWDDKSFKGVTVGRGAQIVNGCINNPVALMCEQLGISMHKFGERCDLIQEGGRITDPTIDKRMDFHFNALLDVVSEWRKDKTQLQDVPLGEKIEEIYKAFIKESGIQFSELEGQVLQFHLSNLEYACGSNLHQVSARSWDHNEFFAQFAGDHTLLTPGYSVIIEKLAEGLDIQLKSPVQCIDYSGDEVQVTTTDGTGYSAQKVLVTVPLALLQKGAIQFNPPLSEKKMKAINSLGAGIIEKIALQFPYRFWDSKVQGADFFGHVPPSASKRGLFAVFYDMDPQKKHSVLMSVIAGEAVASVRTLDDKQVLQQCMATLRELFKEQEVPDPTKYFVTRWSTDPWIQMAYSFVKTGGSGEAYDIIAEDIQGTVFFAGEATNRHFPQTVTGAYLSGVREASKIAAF
Description: Inhibition of human full length LSD2 using biotin-labeled H3K4me2 (1 to 24 residues) as substrate after 1 hr by TR-FRET assay

[6] = tested on: RPMI-8226; assay: Antiproliferative activity against human RPMI8226 cells after 3 days by MTS assay; type: functional, cell-based; settings: RPMI-8226, 72 h
[7] = target: T3, Amine oxidase [flavin-containing] B (Homo sapiens, UniProt P27338); assay: biochemical
T3 sequence (P27338 whole entry): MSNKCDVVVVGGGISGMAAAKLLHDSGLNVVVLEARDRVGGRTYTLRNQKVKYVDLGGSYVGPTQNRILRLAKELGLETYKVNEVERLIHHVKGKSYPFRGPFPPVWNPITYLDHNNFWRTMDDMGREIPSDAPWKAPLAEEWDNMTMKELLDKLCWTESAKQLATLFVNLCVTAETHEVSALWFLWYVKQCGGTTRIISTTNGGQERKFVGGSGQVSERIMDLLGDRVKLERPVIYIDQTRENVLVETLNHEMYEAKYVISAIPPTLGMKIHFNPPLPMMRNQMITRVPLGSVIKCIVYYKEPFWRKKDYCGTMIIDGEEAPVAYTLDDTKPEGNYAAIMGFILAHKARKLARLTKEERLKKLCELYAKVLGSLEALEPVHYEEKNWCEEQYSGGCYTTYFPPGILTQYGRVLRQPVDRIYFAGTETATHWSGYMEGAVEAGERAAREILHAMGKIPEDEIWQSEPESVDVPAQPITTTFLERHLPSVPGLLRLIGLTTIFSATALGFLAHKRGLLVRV
Description: Inhibition of human recombinant MAO-B expressed in baculovirus infected insect cells by luminescence assay

Row | Compound | IC50 [1] | IC50 [2] | IC50 [3] | IC50 [4] | IC50 [6] | IC50 [7] | IC50 [5]
1 | NC1CCC(N[C@@H]2C[C@H]2c2ccccc2)CC1 (stereo partly specified) | > 100 µM | > 20 µM | 0.03 µM | > 20 µM | > 20 µM | – | > 100 µM
2 | COc1ncccc1CN[C@H]1[C@H]2Cc3ccccc3[C@H]21 (racemic) | 79.7 µM | – | – | – | – | > 100 µM | –
3 | COc1ncccc1CN[C@@H]1[C@H]2Cc3ccccc3[C@H]21 (racemic) | > 100 µM | – | – | – | – | > 100 µM | > 100 µM
4 | N[C@@H]1[C@H]2Cc3ccccc3[C@@H]12 (relative stereo) | > 100 µM | – | – | – | – | > 100 µM | –
5 | N[C@H]1[C@H]2Cc3ccccc3[C@@H]12 (relative stereo) | > 100 µM | – | – | – | – | > 100 µM | –

Continued, in another order:

Row | IC50 [1] | IC50 [2] | IC50 [3] | IC50 [4] | IC50 [6] | IC50 [7] | Compound | IC50 [5]
6 | > 100 µM | – | – | – | – | > 100 µM | N[C@H]1CC[C@H](N[C@@H]2[C@H]3Cc4ccccc4[C@H]32)CC1 (racemic) | –
7 | > 100 µM | – | – | – | – | > 100 µM | N[C@H]1CC[C@@H](N[C@@H]2[C@H]3Cc4ccccc4[C@H]32)CC1 (racemic) | –
8 | > 100 µM | > 20 µM | 0.7 µM | > 20 µM | > 20 µM | > 100 µM | N[C@H]1CC[C@H](N[C@H]2[C@H]3Cc4ccccc4[C@H]32)CC1 (racemic) | –
9 | > 100 µM | > 20 µM | 0.2 µM | > 20 µM | > 20 µM | > 100 µM | N[C@H]1CC[C@@H](N[C@H]2[C@H]3Cc4ccccc4[C@H]32)CC1 (racemic) | –
